The results in this text go back to ChEMBL document CHEMBL6103613 (J Med Chem, 2025).

Molecules are shown by their SMILES. ≈ marks a conversion by molar mass, not a printed value. Positions of bridges follow the written chain, without caps; N, C: chain ends. Non-standard residues stand in square brackets, D forms with d. Residues, ends and D or L forms follow the SMILES beside them. *: point of attachment. X1 = CC[C@H](C)CCCCC(=O)*; dDab = NCC[C@@H](N)C(=O)O; Dab = NCC[C@H](N)C(=O)O

Data set [1] concerns Staphylococcus aureus. Put plainly: Antimicrobial activity against Staphylococcus aureus assessed as inhibition of visible bacterial growth incubated for 18 hrs by CLSI based analysis. Type of data set: functional.
The subject of the next data set is Enterococcus faecalis. Description: Antimicrobial activity against Enterococcus faecalis ATCC 19433 assessed as inhibition of visible bacterial growth incubated for 18 hrs by CLSI based analysis. Type of data set: functional.
Data set [2] has as its system Staphylococcus epidermidis. Put plainly: Antimicrobial activity against Staphylococcus epidermidis ATCC 12228 assessed as inhibition of visible bacterial growth incubated for 18 hrs by CLSI based analysis. In kind it is functional.
The test system of data set [3] is Staphylococcus aureus. Put plainly: Antimicrobial activity against methicillin-resistant Staphylococcus aureus clinical isolate 2 assessed as inhibition of visible bacterial growth incubated for 18 hrs by CLSI based analysis. Type of data set: functional.
The next data set relates to Enterococcus gallinarum. Description: Antimicrobial activity against Enterococcus gallinarum ATCC 49573 assessed as inhibition of visible bacterial growth incubated for 18 hrs by CLSI based analysis. In kind it is functional.
The test system of data set [4] is Staphylococcus aureus. Put plainly: Antimicrobial activity against methicillin-resistant Staphylococcus aureus clinical isolate 3 assessed as inhibition of visible bacterial growth incubated for 18 hrs by CLSI based analysis. In kind it is functional.
Another data set relates to Enterococcus faecium. Put plainly: Antimicrobial activity against vancomycin-resistant Enterococcus faecium assessed as inhibition of visible bacterial growth incubated for 18 hrs by CLSI based analysis. In kind it is functional.
The next data set relates to Candida albicans. Description: Antifungal activity against Candida albicans assessed as reduction in fungal growth incubated for 18 hrs by CLSI based analysis. Type of data set: functional.
Another data set has as its system Escherichia coli. Put plainly: Antimicrobial activity against Escherichia coli assessed as inhibition of visible bacterial growth incubated for 18 hrs by CLSI based analysis. In kind it is functional.
A short description of data set [5]: Therapeutic index, ratio of HC5 for hemolytic activity in mouse Red blood cell to MIC for antimicrobial activity against Staphylococcus aureus ATCC 25923 assessed as inhibition of visible bacterial growth. In kind it is toxicity, cell-based, RBC. The settings on record: red blood cells, read-out: TI.
The test system of another data set is Bacillus subtilis. Put plainly: Antimicrobial activity against Bacillus subtilis ATCC 23875 assessed as inhibition of visible bacterial growth incubated for 18 hrs by CLSI based analysis. Type of data set: functional.
Data set [6] relates to Staphylococcus aureus. Description: Antimicrobial activity against methicillin-resistant Staphylococcus aureus clinical isolate 4 assessed as inhibition of visible bacterial growth incubated for 18 hrs by CLSI based analysis. Type of data set: functional.
Data set [7] is described as follows: Hemolytic activity against mouse Red blood cell incubated for 1 hr. The settings on record: erythrocyte. Type of data set: toxicity, cell-based.
For data set [8], the system named is Staphylococcus aureus. Description: Antimicrobial activity against Staphylococcus aureus ATCC 25923 assessed as inhibition of visible bacterial growth incubated for 18 hrs by CLSI based analysis. In kind it is functional.
For data set [9], the system named is Staphylococcus aureus. Put plainly: Antimicrobial activity against methicillin-resistant Staphylococcus aureus ATCC 43300 assessed as inhibition of visible bacterial growth incubated for 18 hrs by CLSI based analysis. In kind it is functional.
Data set [10] concerns Cell membrane. Description: Disruption of cell membrane integrity in Staphylococcus aureus at 4 times of MIC incubated for 1 mins by Propidium iodide staining based analysis. Type of data set: subcellular.
Data set [11] relates to Cell membrane. Description: Disruption of cell membrane integrity in Staphylococcus aureus at 4 times of MIC incubated for 30 mins by Propidium iodide staining based analysis. In kind it is subcellular.
Data set [12] deals with Staphylococcus aureus. Put plainly: Drug resistance, ratio of MIC for Staphylococcus aureus after 6 passages to MIC for Staphylococcus aureus during first exposure. Type of data set: functional.
Data set [13] deals with Staphylococcus aureus. Description: Drug resistance, ratio of MIC for Staphylococcus aureus after 15 passages to MIC for Staphylococcus aureus during first exposure. Type of data set: functional.
The test system of data set [14] is Staphylococcus aureus. Put plainly: Drug resistance, ratio of MIC for Staphylococcus aureus after 21 passages to MIC for Staphylococcus aureus during first exposure. In kind it is functional.
The subject of data set [15] is Staphylococcus aureus. Description: Drug resistance, ratio of MIC for Staphylococcus aureus after 12 passages to MIC for Staphylococcus aureus during first exposure. In kind it is functional.

The MIC is the lowest concentration that inhibits growth of the organism. For the molecule `CC(C)C[C@H]1NC(=O)[C@H](Cc2c(C(c3ccccc3)c3ccccc3)[nH]c3ccccc23)NC(=O)[C@@H](C(C)C)NC(=O)[C@@H]2CSC(N2)[C@H](C(C)C)NC(=O)[C@@H](CCCCN)NC(=O)[C@H](C(C)C)NC1=O`, the minimal inhibitory concentration (MIC) in the data set on Staphylococcus aureus [1] was found to be 3.13 µg/mL (≈ 3.2 µM); in the data set with Enterococcus faecalis, 25 µg/mL (≈ 25.6 µM); in [2], 12.5 µg/mL (≈ 12.8 µM); with Staphylococcus aureus [3], 12.5 µg/mL (≈ 12.8 µM); in the data set with Enterococcus gallinarum it was 25 µg/mL (≈ 25.6 µM); in the data set with Staphylococcus aureus [4], 12.5 µg/mL (≈ 12.8 µM). Moreover, the MIC is 25 µg/mL (≈ 25.6 µM) in the data set with Enterococcus faecium; 3.13 µg/mL (≈ 3.2 µM) with Candida albicans; 3.13 µg/mL (≈ 3.2 µM) in the data set with Escherichia coli; 6.25 µg/mL (≈ 6.39 µM) in the data set on Bacillus subtilis; 12.5 µg/mL (≈ 12.8 µM) in the data set on Staphylococcus aureus [6]; 12.5 µg/mL (≈ 12.8 µM) in the data set with Staphylococcus aureus [8]. In addition, the minimal inhibitory concentration (MIC) in the data set on Staphylococcus aureus [9] was 12.5 µg/mL (≈ 12.8 µM). For the same molecule, the selectivity ratio in data set [5] is 3.48. In data set [7], this molecule showed an HC5 of 43.53 µg/mL.

On to `CC(C)CCCCC(=O)N[C@@H](CCN)C(=O)N[C@H](C(=O)N[C@@H](CCN)C(=O)N[C@H]1CCNC(=O)[C@H]([C@@H](C)O)NC(=O)[C@H](CCN)NC(=O)[C@H](CCN)NC(=O)[C@H](CC(C)C)NC(=O)[C@@H](Cc2ccccc2)NC(=O)[C@@H](CCN)NC1=O)[C@@H](C)O.CC[C@H](C)CCCCC(=O)N[C@@H](CCN)C(=O)N[C@H](C(=O)N[C@@H](CCN)C(=O)N[C@H]1CCNC(=O)[C@H]([C@@H](C)O)NC(=O)[C@H](CCN)NC(=O)[C@H](CCN)NC(=O)[C@H](CC(C)C)NC(=O)[C@@H](Cc2ccccc2)NC(=O)[C@@H](CCN)NC1=O)[C@@H](C)O` (X1-[Dab]T[Dab][Dab][dDab][dF]L[Dab][Dab]T; lactam 4-C), for which the Activity in the data set on Cell membrane [10] is 5.54%; in the data set with Cell membrane [11] it was 38%.

Regarding `CC(C)C[C@H]1NC(=O)[C@H](Cc2c(C(c3ccccc3)(c3ccccc3)c3ccccc3)[nH]c3ccccc23)NC(=O)[C@@H](CCCCN)NC(=O)[C@@H]2CSC(N2)[C@H](C(C)C)NC(=O)[C@@H](C(C)C)NC(=O)[C@H](C(C)C)NC1=O`, the MIC with Staphylococcus aureus [1] came to 3.13 µg/mL (≈ 2.97 µM); in the data set with Enterococcus faecalis, 12.5 µg/mL (≈ 11.9 µM); in data set [2], 12.5 µg/mL (≈ 11.9 µM); with Staphylococcus aureus [3], 12.5 µg/mL (≈ 11.9 µM); in the data set on Enterococcus gallinarum it was 12.5 µg/mL (≈ 11.9 µM); with Staphylococcus aureus [4], 25 µg/mL (≈ 23.7 µM). For the same molecule, the MIC in the data set on Enterococcus faecium stood at 25 µg/mL (≈ 23.7 µM); with Candida albicans, 3.13 µg/mL (≈ 2.97 µM); in the data set with Escherichia coli, 3.13 µg/mL (≈ 2.97 µM); with Bacillus subtilis, 6.25 µg/mL (≈ 5.93 µM); in the data set on Staphylococcus aureus [6], 12.5 µg/mL (≈ 11.9 µM); in the data set with Staphylococcus aureus [8], 6.25 µg/mL (≈ 5.93 µM). Moreover, in the data set with Staphylococcus aureus [9], the MIC was determined as 12.5 µg/mL (≈ 11.9 µM). Also, the selectivity ratio in data set [5] came to 7.44. The molecule also yielded an HC5 in [7] of 46.47 µg/mL.

Turning to `CC(C)C[C@H]1NC(=O)[C@H](Cc2c(C(c3ccccc3)c3ccccc3)[nH]c3ccccc23)NC(=O)[C@@H](CCCCN)NC(=O)[C@@H]2CSC(N2)[C@H](C(C)C)NC(=O)[C@@H](C(C)C)NC(=O)[C@H](C(C)C)NC1=O`, the MIC in the data set with Staphylococcus aureus [1] amounted to 3.13 µg/mL (≈ 3.2 µM); in the data set with Enterococcus faecalis, 25 µg/mL (≈ 25.6 µM); in data set [2], 25 µg/mL (≈ 25.6 µM); in the data set with Staphylococcus aureus [3] it was 25 µg/mL (≈ 25.6 µM); in the data set with Enterococcus gallinarum, 50 µg/mL (≈ 51.1 µM); in the data set with Staphylococcus aureus [4] it was 25 µg/mL (≈ 25.6 µM). The MIC in the data set with Enterococcus faecium is 50 µg/mL (≈ 51.1 µM); in the data set on Candida albicans, 3.13 µg/mL (≈ 3.2 µM); in the data set with Escherichia coli, 3.13 µg/mL (≈ 3.2 µM); in the data set with Bacillus subtilis, 25 µg/mL (≈ 25.6 µM); in the data set on Staphylococcus aureus [6], 25 µg/mL (≈ 25.6 µM); with Staphylococcus aureus [8], 25 µg/mL (≈ 25.6 µM). In addition, the minimal inhibitory concentration (MIC) with Staphylococcus aureus [9] is 25 µg/mL (≈ 25.6 µM). Besides, the selectivity ratio in [5] was over 4. In data set [7], the HC5 was over 100 µg/mL.

Consider `CC1(C)S[C@@H]2[C@H](NC(=O)[C@H](N)c3ccc(O)cc3)C(=O)N2[C@H]1C(=O)O` [AMOXICILLIN], for which the Ratio in the data set with Staphylococcus aureus [12] is recorded as 10; in the data set on Staphylococcus aureus [13], 250; in the data set with Staphylococcus aureus [14], 250; in the data set with Staphylococcus aureus [15], 30.
